Data published in ChEMBL document CHEMBL2412991, “Catalytic asymmetric total synthesis of (S)-(-)-zearalenone, a novel lipoxygenase inhibitor” (Bioorg Med Chem, 2013).

Molecular target: T1, Seed linoleate 13S-lipoxygenase-1 (Glycine max, UniProt P08170)
T1 sequence (P08170 whole entry): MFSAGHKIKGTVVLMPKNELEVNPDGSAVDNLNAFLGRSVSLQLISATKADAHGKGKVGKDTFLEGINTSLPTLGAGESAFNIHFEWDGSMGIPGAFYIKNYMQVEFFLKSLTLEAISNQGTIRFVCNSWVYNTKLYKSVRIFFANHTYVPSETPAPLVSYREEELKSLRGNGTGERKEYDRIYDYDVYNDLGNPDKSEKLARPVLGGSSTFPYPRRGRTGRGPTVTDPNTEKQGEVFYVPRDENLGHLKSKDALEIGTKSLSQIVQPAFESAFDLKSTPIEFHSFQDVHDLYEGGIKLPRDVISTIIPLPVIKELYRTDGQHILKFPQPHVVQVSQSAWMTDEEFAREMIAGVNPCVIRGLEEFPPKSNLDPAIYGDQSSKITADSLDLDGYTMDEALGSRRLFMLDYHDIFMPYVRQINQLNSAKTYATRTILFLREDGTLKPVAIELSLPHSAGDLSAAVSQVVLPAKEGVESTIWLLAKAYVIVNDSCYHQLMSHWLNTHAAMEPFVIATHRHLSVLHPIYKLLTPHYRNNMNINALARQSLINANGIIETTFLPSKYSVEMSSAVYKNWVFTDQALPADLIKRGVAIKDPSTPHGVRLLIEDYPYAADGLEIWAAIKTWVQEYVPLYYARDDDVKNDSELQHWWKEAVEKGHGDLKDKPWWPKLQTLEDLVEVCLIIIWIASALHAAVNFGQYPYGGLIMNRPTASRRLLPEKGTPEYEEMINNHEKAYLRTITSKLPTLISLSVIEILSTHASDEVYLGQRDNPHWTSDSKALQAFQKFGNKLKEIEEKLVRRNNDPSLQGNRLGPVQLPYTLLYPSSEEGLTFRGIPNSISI
Test: Inhibition of soybean lipoxygenase-1 assessed as inhibition of conversion of linoleic acid into hydroperoxy […] acid preincubated for 10 mins before substrate addition measured over 20 mins by spectrophotometric assay

C[C@H]1CCCC(=O)CCC/C=C/c2cc(O)cc(O)c2C(=O)O1 [ZEARALENONE]
IC50: 51 µM
